Values of other authors in patent publication US9174839B2, “Methods and compositions for wound healing” (IMBED BIOSCIENCES, INC., priority 2008, dated 2015).

Experiments:
[1] = incisional wounds
keratinocytes = settings: in vitro monolayer cell cultures
lymphocytes = settings: in vitro
hepatocytes = settings: in vitro
fibroblasts = settings: in vitro monolayer cell cultures

Row | Compound | fibroblastic proliferation [1] | production of collagen [1] | toxicity to keratinocytes (keratinocytes) | cytotoxic effects on lymphocytes (lymphocytes) | cytotoxic effects on hepatocytes (hepatocytes) | toxicity to fibroblasts (fibroblasts)
1 | CC1=C(/C=C/C(C)=C/C=C/C(C)=C/C(=O)O)C(C)(C)CCC1 [tretinoin] | increased | diminished | – | – | – | –
2 | silver ions | – | – | cytotoxic effects | cytotoxic effects | cytotoxic effects | cytotoxic effects
